From ChEMBL document CHEMBL1136042, “Design, synthesis, and neuraminidase inhibitory activity of GS-4071 analogues that utilize a novel hydrophobic paradigm” (Bioorg Med Chem Lett, 2002)

Assay: The compound was tested for its inhibition against Neuraminidase of the influenza RNA virus

| SMILES | Ki |
| --- | --- |
| C=CC[C@H]1CC(C(=O)O)=C[C@@H](OC(CC)CC)[C@@H]1NC(C)=O | 1300 nM |
| CC(=O)N[C@@H]1[C@@H](CCO)CC(C(=O)O)=C[C@H]1OC(C)C | 4100 nM |
| C=CC[C@@H]1CC(C(=O)O)=C[C@@H](OC(C)C)[C@@H]1NC(C)=O | 14000 nM |
| C=C[C@@H]1CC(C(=O)O)=C[C@@H](OC(C)C)[C@@H]1NC(C)=O | 69000 nM |
| CCO[C@@H]1C=C(C(=O)O)C[C@H](N)[C@H]1NC(C)=O | 180 nM |
| C=CC[C@H]1CC(C(=O)O)=C[C@@H](OC(C)C)[C@@H]1NC(C)=O | 1100 nM |
| C=C[C@H]1CC(C(=O)O)=C[C@@H](OC(C)C)[C@@H]1NC(C)=O | 45 nM |
